# According to patent US4962108A, “Antibacterial quinoline compounds” (Warner-Lambert Company, priority 1988, dated 1990):
# Where two headings read alike, the source gives them in different places.
# Legend:
# Assay in all cases: in vitro antibacterial activity, microtitration dilution method
# Assay type in all cases: cell-based
# [1] = system: Enterobacter cloacae MA 2646
# Description: (§1) The compounds of the invention display antibacterial activity when tested by the microtitration dilution method as described in Heifetz, et al, Antimicr. Agents & Chemoth., 6, 124 (1974), which is incorporated herein by reference.
# (§2) By use of the above reference method, the following minimum inhibitory concentration value (MICs in μg/ml) shown in Table I were obtained for representative compounds of the invention.
# Escherichia coli Vogel = settings: read-out: minimal inhibitory concentration (MIC)
# Description: as §1, §2
# Proteus rettgeri M 1771 = settings: Providencia rettgeri, M1771, read-out: minimal inhibitory concentration (MIC)
# Description: as §1, §2
# [2] = system: Klebsiella pneumoniae MGH-2
# Description: (§3) Agents & Chemoth., 6, 124 (1974), which is incorporated herein by reference.
# [3] = system: Pseudomonas aeruginosa UI-18
# Description: as §3
# [4] = system: Staphylococcus aureus H 228
# Description: as §3
# [5] = system: Staphylococcus aureus UC-76
# Description: as §3
# [6] = system: Streptococcus faecalis MGH-2; settings: Enterococcus faecalis
# Description: as §3
# [7] = system: Streptococcus pneumoniae SV-1
# Description: as §3
# [8] = system: Streptococcus pyogenes C-203
# Description: as §3
# [9] = MA2646, in vitro, Enterobacter cloacae MA 2646, read-out: minimal inhibitory concentration (MIC)
# [10] = MGH2, in vitro, Klebsiella pneumoniae MGH-2, read-out: minimal inhibitory concentration (MIC)
# [11] = UI18, in vitro, Pseudomonas aeruginosa UI-18, read-out: minimal inhibitory concentration (MIC)
# [12] = Staphylococcus aureus, H228, read-out: minimal inhibitory concentration (MIC)
# [13] = UC76, in vitro, Staphylococcus aureus UC-76, read-out: minimal inhibitory concentration (MIC)
# [14] = MGH2, read-out: minimal inhibitory concentration (MIC)
# [15] = SV1, in vitro, Streptococcus pneumoniae SV-1, read-out: minimal inhibitory concentration (MIC)
# [16] = C203, in vitro, Streptococcus pyogenes C-203, read-out: minimal inhibitory concentration (MIC)
# [17] = H228, in vitro, Staphylococcus aureus H 228, read-out: minimal inhibitory concentration (MIC)
# [18] = MGH2, in vitro, Streptococcus faecalis MGH-2, read-out: minimal inhibitory concentration (MIC)
# [19] = Enterobacter cloacae, MA2646, read-out: minimal inhibitory concentration (MIC)
# [20] = Klebsiella pneumoniae, MGH2, read-out: minimal inhibitory concentration (MIC)
# [21] = Pseudomonas aeruginosa, UI18, read-out: minimal inhibitory concentration (MIC)
# [22] = Staphylococcus aureus, UC76, read-out: minimal inhibitory concentration (MIC)
Compound,"MIC [1, 9] [µg/mL]",MIC (Escherichia coli Vogel) [µg/mL],MIC (Proteus rettgeri M 1771) [µg/mL],"MIC [2, 10] [µg/mL]","MIC [3, 11] [µg/mL]","MIC [4, 12] [µg/mL]","MIC [5, 13] [µg/mL]","MIC [6, 14] [µg/mL]","MIC [7, 15] [µg/mL]","MIC [8, 16] [µg/mL]","MIC [4, 17] [µg/mL]","MIC [6, 18] [µg/mL]","MIC ([8]; Streptococcus pyogenes, C203, read-out: minimal inhibitory concentration (MIC)) [µg/mL]","MIC [1, 19] [µg/mL]","MIC [2, 20] [µg/mL]","MIC [3, 21] [µg/mL]","MIC [5, 22] [µg/mL]","MIC ([7]; Streptococcus pneumoniae, SV1, read-out: minimal inhibitory concentration (MIC)) [µg/mL]"
"CCn1cc(C(=O)O)c(=O)c2cc(F)c(N3CC4CCCC3CN4)c(F)c21 (stereo not drawn) [Example 1, 7-(6,8-Diazabicyclo[3.2.2]non-6-yl)-1-ethyl-6,8-difluoro-1,4-dihydro-4-oxo-3-quinolinecarboxylic acid]",0.4,0.4,0.8,0.8,3.1,0.2,0.05,0.8,0.8,1.6,,,,,,,,
"O=C(O)c1cn(C2CC2)c2c(F)c(N3CC4CCCC3CN4)c(F)cc2c1=O (stereo not drawn) [Example 2, 1-Cyclopropyl-7-(6,8-diazabicyclo[3.2.2]non-6-yl)-6,8-difluoro-1,4-dihydro-4-oxo-3-quinolinecarboxylic acid]",0.1,0.4,0.4,0.2,0.8,,0.05,,0.2,,0.05,0.2,0.8,,,,,
"O=C(O)c1cn(C2CC2)c2nc(N3CC4CCCC3CN4)c(F)cc2c1=O (stereo not drawn) [Example 3, 1-cyclopropyl-7-(6,8-diazabicyclo[3.2.2]non-6-yl)-6-fluoro-1,4-dihydro-4-oxo-1,8-naphthyridine-3-carboxylic acid]",,0.03,0.4,,,0.2,0.1,,0.05,0.1,,0.2,,0.05,0.1,0.4,,
"CCn1cc(C(=O)O)c(=O)c2cc(F)c(N3CC4CCCC3CN4C)c(F)c21 (stereo not drawn) [Example 4, 1-Ethyl-6,8-difluoro-1,4-dihydro-7-(8-methyl-6,8-diazabicyclo[3.2.2]non-6-yl)-4-oxo-3-quinolinecarboxylic acid]",1.6,0.8,6.3,1.6,12.5,0.2,0.1,0.8,0.8,1.6,,,,,,,,
"CCN[C@@H]1C[C@H]2CC[C@@H](C1)N2c1nc2c(cc1F)c(=O)c(C(=O)O)cn2C1CC1 [Example 5a, 1-cyclopropyl-7-[3-exo(ethylamino)-8-azabicyclo[3.2.1]oct-8-yl]-6-fluoro-1,4-dihydro-4-oxo-1,8-naphthyridine-3-carboxylic acid]",0.8,0.2,3.1,0.4,1.6,0.2,,,0.2,0.4,,0.4,,,,,0.2,
"CCN[C@H]1C[C@H]2CC[C@@H](C1)N2c1nc2c(cc1F)c(=O)c(C(=O)O)cn2C1CC1 [Example 5b, 1-Cyclopropyl-7-[3-endo(ethylamino)-8-azabicyclo[3.2.1]oct-8-yl]-6-fluoro-1,4-dihydro-4-oxo-1,8-naphthyridine-3-carboxylic acid]",0.8,0.4,3.1,0.8,3.1,,0.4,0.8,0.4,0.4,0.8,,,,,,,
"CCN[C@H]1C[C@H]2CC[C@@H](C1)N2c1c(F)cc2c(=O)c(C(=O)O)cn(C3CC3)c2c1F [Example 5c, 1-cyclopropyl-7-[3-endo(ethylamino)-8-azabicyclo[3.2.1]oct-8-yl]-6,8-difluoro-1,4-dihydro-4-oxo-3-quinolinecarboxylic acid]",0.4,0.4,3.1,0.8,3.1,,,0.8,0.4,0.4,0.8,,,,,,0.2,
"CCN[C@@H]1C[C@H]2CC[C@@H](C1)N2c1c(F)cc2c(=O)c(C(=O)O)cn(C3CC3)c2c1F [Example 5d, 1-cyclopropyl-7-[3-exo(ethylamino)-8-azabicyclo[3.2.1]oct-8-yl]-6,8-difluoro-1,4-dihydro-4-oxo-3-quinolinecarboxylic acid]",0.2,0.2,1.6,0.4,3.1,0.2,0.1,,0.1,0.1,,0.2,,,,,,
"CCN[C@@H]1C[C@H]2CC[C@@H](C1)N2c1cc2c(cc1F)c(=O)c(C(=O)O)cn2C1CC1 [Example 5e, 1-cyclopropyl-7-[3-exo(ethylamino)-8-azabicyclo[3.2.1]oct-8-yl]-6-fluoro-1,4-dihydro-4-oxo-3-quinolinecarboxylic acid]",0.8,0.4,3.1,0.8,3.1,,,,0.2,0.4,0.4,0.4,,,,,0.2,
"CCN[C@H]1C[C@H]2CC[C@@H](C1)N2c1cc2c(cc1F)c(=O)c(C(=O)O)cn2C1CC1 [Example 5f, 1-cyclopropyl-7-[3-endo(ethylamino)-8-azabicyclo[3.2.1]oct-8-yl]-6-fluoro-1,4-dihydro-4-oxo-3-quinolinecarboxylic acid]",1.6,1.6,12.5,3.1,6.3,,0.8,,,1.6,3.1,3.1,,,,,,1.6
"O=C(O)c1cn(C2CC2)c2cc(N3CC4CCCC3CN4)c(F)cc2c1=O (stereo not drawn) [Example 7, 1-Cyclopropyl-7-(6,8-diazabicyclo[3.2.2]non-6-yl)-6-fluoro-1,4-dihydro-4-oxo-3-quinolinecarboxylic acid]",,0.05,0.4,,,,0.025,,0.05,0.05,0.1,0.1,,0.05,0.1,0.4,,
"O=C(O)c1cn(C2CC2)c2c(Cl)c(N3CC4CCCC3CN4)c(F)cc2c1=O (stereo not drawn) [Example 8, 8-Chloro-1-cyclopropyl-7-(6,8-diazabicyclo[3.2.2]non-6-yl)-6-fluoro-1,4-dihydro-4-oxo-3-quinolinecarboxylic acid]",0.2,0.2,0.4,0.2,0.8,0.2,0.05,,0.1,0.1,,0.2,,,,,,
